Laboratory results published in patent publication US20050282818A1, “Ubiquitin ligase inhibitors” (Rigel Pharmaceuticals, Inc., priority 2004, published 2005).
pIC50: −log10 of the molar value. Each block holds one compound with its values, some of them ahead of it.

Experiments:
Type in all cases: cell-based
[1] = system: DLD-1 cells; assay: Cell proliferation PAD assay, DLD-1; settings: Homo sapiens, DLD1 cells, 6pt, 48 hours
Excerpt: (§1) Table 3 illustrates the inhibitory activity of the compounds of the invention determined by the PAD assay described above in a number of cell types. Apoptosis was not
Cell lines used are available from American Type Culture Collection (ATCC), for example, cell cultures containing A549 (ATCC# CCL-185), HeLa (ATCC# CCL-2), HCT116 ATTC# CCL-247), and H1299 (ATCC# CRL-5803) cells were maintained in T175 flasks following the ATCC recommended media and handling procedures. […] A 20,000 cells/ml solution was made for plating. Cells were plated in black Packard 96 well plates by placing 100 μl per well (2,000 cells per well). […] The definitions of the cell types used are as follows: A549 is lung carcinoma; HI 299 is non-small cell lung carcinoma; HI 155 is non-small cell lung carcinoma; AsPC-1 is pancreatic adenocarcinoma; Caov-3 is ovarian adenocarcinoma; COLO 205 is colorectal adenocarcinoma; DLD-1 colorectal adenocarcinoma; HCT116 is colorectal carcinoma; DU 145 is prostate carcinoma; ES-2 is ovarian clear cell carcinoma; H460 is large cell lung carcinoma; HELA is cervical adenocarcinoma; MIA PaCa-2 is pancreatice carcinoma; OVCAR-3 is ovarian adenocarcinoma; OVCAR8 is ovarian carcinoma; PC3 is prostate adenocarcinoma; SK-OV-3 is ovarian adenocarcinoma; SU86.86 is pancreatic carcinoma; TOV-21G is avarian clear cell carcinoma; U2OS is bone osteosarcoma; is ASPC-I is pancreatic adenocarcinoma; BXPC-3 is pabcreatic adenocarcinoma; HL60 is promyeloblast promyelocytic leukemia; K562 is bone marrow chronic myelogenous leukemia; L1210 is mouse lymphocytic leukemia; MOLT3 is T lymphoblast acute lymphoblastic leukemia; MOLT4 is T lymphoblast acute lymphoblastic leukemia; SW620 is colorectal adenocarcinoma; THP-1 is monocyte acute monocytic leukemia; U937 is histiocytic lymphoma; and UACC-257 is melanoma.
Compounds and additional media were added 24 hours after cell plating. A compound master plate was created with concentrations 500 times greater than the final concentration added to the cells. All compound testing was done in duplicate using 6.3 fold dilutions starting with 10 mM. All outside wells (and 4 internal wells) were DMSO controls. Taxol and at least one additional control were run on all plates. Three microliters of the compound master plate were added to deep well blocks containing 750 μl of RPMI media. One hundred microliters were transferred from the compound/media deep well blocks to the plated cells resulting in a 500 fold dilution of the compounds. Cells were grown at 37° C., 5% CO2 for 48 hours.
Cells to be analyzed by photography were fixed and stained. One hundred microliters of media were removed and 100 μl of 9.3% formamide was added to each well. Plates were left on the benchtop for 45 minutes. A staining solution containing 1.55 μl of 1 mg/ml DAPI added to 18.75 ml PBS was warmed for 15 minutes at 37° C. The cells were aspirated prior to washing with 100 μl of PBS. Seventy microliters of PBS were aspirated and 170 μl of the DAPI solution were added to each well of fixed cells. Plates were left at room temperature for one hour then aspirated and washed twice with 100 μl of PBS. The stained cells were left at 4° C. for a minimum of 16 hours before photographic analysis with Array Scan II (Cellomics). Analysis of the photographic images to determine numbers of live cells (proliferation), apoptotic cells and dead cells, were according to the methods described in U.S. Utility patent application Ser. No. 10/652,440, which incorporated herein in its entirety.

[2] = system: COLO 205 cells; assay: Cell proliferation PAD assay, COLO 205; settings: Homo sapiens, Colo205 cells, 9pt, 48 hours
Excerpt: as §1
(§2) Cell lines used are available from American Type Culture Collection (ATCC), for example, cell cultures containing A549 (ATCC# CCL-185), HeLa (ATCC# CCL-2), HCT116 ATTC# CCL-247), and H1299 (ATCC# CRL-5803) cells were maintained in T175 flasks following the ATCC recommended media and handling procedures. […] A 20,000 cells/ml solution was made for plating. Cells were plated in black Packard 96 well plates by placing 100 μl per well (2,000 cells per well). […]
(§3) Cells to be analyzed by photography were fixed and stained. […]

[3] = system: MIA PaCa-2 cells; assay: Cell proliferation PAD assay, MIA PaCa-2; settings: Homo sapiens, Miapaca2 cells, 9pt, 48 hours
Excerpt: as §1, §2, §3

Compound: COC(=O)c1ccc(NS(=O)(=O)c2c(Cl)ccc3nonc23)cc1 [compound 178, methyl 4-{[(5-chloro-2,1,3-benzoxadiazol-4-yl)sulfonyl]amino}benzoate]
pIC50 [1]: > 6.00

Compound: O=S(=O)(c1c(Cl)ccc2nonc12)N1CCN(c2ncc(C(F)(F)F)cc2Cl)CC1 [compound 179, 5-chloro-4-({4-[3-chloro-5-(trifluoromethyl)pyridin-2-yl]piperazin-1-yl}sulfonyl)-2,1,3-benzoxadiazole]
pIC50 [1]: 4.70 to 6.00

Compound: Cc1cccc(N2CCN(S(=O)(=O)c3c(Cl)ccc4nonc34)CC2)n1 [compound 202, 5-chloro-4-{[4-(6-methylpyridin-2-yl)piperazin-1-yl]sulfonyl}-2,1,3-benzoxadiazole]
pIC50 [1]: > 6.00

Compound: CC1(C)CCN(S(=O)(=O)c2c(Cl)ccc3nonc23)CC1 [compound 245, 5-chloro-4-[(4,4-dimethylpiperidin-1-yl)sulfonyl]-2,1,3-benzoxadiazole]
pIC50 [2]: > 6.00
pIC50 [3]: > 6.00

Continued, values first:

pIC50 [1]: > 6.00
Compound: O=[N+]([O-])c1ccc(SCCO)c2nonc12 [compound 150, 2-[(7-nitro-2,1,3-benzoxadiazol-4-yl)thio]ethanol]

pIC50 [1]: 4.70 to 6.00
Compound: O=S(=O)(Nc1ccc2cn[nH]c2c1)c1ccc(Cl)c2nonc12 [compound 220, 7-chloro-N-1 H-indazol-6-yl-2,1,3-benzoxadiazole-4-sulfonamide]

pIC50 [1]: 4.70 to 6.00
Compound: Cc1cc(C)cc(-c2ccc([N+](=O)[O-])c3nonc23)c1 [compound 286, 4-(3,5-Dimethylphenyl)-7-nitro-2,1,3-benzoxadiazole]
